What was measured:
Type in all cases: binding
[1] = molecular target: T1, EcDnaB (Escherichia coli, UniProt P0ACB0); assay: negative-stain EM 2D class averages and SAXS; settings: 0-1 mM AMPPNP in SAXS
[2] = molecular target: T2, GstDnaB (Geobacillus stearothermophilus, UniProt Q9X4C9); assay: negative-stain EM 2D class averages
T2 sequence (Q9X4C9 1-454): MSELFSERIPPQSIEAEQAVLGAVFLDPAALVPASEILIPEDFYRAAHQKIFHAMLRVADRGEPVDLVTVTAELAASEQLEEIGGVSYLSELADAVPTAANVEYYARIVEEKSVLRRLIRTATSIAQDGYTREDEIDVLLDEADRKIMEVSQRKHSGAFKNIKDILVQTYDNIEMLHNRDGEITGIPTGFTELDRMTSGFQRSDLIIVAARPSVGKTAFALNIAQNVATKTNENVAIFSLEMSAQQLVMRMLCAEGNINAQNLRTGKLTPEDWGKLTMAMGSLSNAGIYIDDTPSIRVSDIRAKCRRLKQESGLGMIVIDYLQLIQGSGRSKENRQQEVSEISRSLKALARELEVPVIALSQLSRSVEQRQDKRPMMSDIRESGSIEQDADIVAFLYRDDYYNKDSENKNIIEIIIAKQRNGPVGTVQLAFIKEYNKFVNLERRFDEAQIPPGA

[3] = molecular target: T1, EcDnaB; assay: negative-stain EM 2D class averages

T1 sequence (P0ACB0 2-471): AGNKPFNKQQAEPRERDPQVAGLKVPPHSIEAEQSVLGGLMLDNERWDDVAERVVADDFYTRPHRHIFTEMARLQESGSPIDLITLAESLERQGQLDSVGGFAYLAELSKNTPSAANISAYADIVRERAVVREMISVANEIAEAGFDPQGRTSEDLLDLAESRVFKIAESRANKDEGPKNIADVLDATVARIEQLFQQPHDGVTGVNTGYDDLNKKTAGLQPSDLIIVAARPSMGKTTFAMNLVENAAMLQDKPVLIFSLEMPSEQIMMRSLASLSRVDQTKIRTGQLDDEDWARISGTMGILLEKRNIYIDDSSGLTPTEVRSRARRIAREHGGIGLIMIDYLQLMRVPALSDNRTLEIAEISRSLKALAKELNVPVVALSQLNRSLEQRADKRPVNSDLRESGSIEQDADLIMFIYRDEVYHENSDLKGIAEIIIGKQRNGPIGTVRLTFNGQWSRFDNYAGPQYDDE

For `Nc1ncnc2c1ncn2[C@@H]1O[C@H](COP(=O)(O)OP(=O)(O)NP(=O)(O)O)[C@@H](O)[C@H]1O` [AMPPNP], the “negative-stain EM 2D class averages and SAXS (collar constriction)” value [1] was “two kinds of 2D class averages were observed for EcDnaB in the presence of ATPγS”.

In the case of `Nc1ncnc2c1ncn2[C@@H]1O[C@H](COP(=O)(O)OP(=O)(O)OP(=O)(O)O)[C@@H](O)[C@H]1O` [ATP], the “negative-stain EM 2D class averages (collar constriction)” value [2] is reported as 2D EM analysis again revealed evidence for a constricted species in the presence of ATP.

For `Nc1ncnc2c1ncn2[C@@H]1O[C@H](COP(=O)(O)OP(=O)(O)OP(O)(O)=S)[C@@H](O)[C@H]1O` [ATPγS], the “negative-stain EM 2D class averages (collar constriction)” value [3] was “two kinds of 2D class averages were observed for EcDnaB in the presence of ATPγS”.

— PMC3929961 (Molecular cell, 2013)
